Here are results for 31 compounds from patent publication EP4624465A1, “COMPOUND SERVING AS DDR1 KINASE INHIBITOR, AND MEDICINE” (Nippon Shinyaku Co., Ltd., priority 2022, dated 2024).

This test deals with DDR1 kinase (Homo sapiens, UniProt Q08345). Nature of the test: Evaluation of DDR1 kinase inhibition (LANCE Ultra TR-FRET kinase assay). In kind it is biochemical. More on the design: purchased Carna Biosciences 08-113. As to conditions: DDR1 protein 0.5 nM, LANCE Ultra ULight-poly GAT substrate, 2 hours at room temperature, duplicate; read-out: DDR-1 IC50.
DDR1 kinase, sequence (Q08345 19-876 isoform Q08345-2 limits assumed): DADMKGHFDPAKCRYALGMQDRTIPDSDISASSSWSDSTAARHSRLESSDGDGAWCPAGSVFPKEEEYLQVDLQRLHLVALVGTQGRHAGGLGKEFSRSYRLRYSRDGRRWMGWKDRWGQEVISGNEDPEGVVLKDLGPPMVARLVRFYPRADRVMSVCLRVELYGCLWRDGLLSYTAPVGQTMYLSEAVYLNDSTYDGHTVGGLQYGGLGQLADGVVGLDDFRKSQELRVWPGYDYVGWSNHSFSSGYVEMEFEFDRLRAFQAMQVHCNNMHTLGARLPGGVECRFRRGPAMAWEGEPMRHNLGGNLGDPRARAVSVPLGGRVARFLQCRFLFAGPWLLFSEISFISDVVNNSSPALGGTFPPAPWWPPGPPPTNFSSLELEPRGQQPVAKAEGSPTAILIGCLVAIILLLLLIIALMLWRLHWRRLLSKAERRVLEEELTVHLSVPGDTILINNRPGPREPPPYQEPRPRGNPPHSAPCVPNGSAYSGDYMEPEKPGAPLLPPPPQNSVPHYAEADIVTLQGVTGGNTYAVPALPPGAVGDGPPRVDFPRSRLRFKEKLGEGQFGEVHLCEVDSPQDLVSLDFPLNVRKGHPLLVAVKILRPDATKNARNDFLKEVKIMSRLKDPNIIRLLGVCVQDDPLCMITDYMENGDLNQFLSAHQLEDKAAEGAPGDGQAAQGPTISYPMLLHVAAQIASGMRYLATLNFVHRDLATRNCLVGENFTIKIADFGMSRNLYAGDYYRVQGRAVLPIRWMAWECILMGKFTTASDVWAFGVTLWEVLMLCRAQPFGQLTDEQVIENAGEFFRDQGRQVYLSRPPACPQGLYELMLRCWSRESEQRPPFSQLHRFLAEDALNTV

In the case of `Nc1cc(C(=O)N2CC(c3nn(CC(=O)N4CCC5(COC5)C4)c4ccccc34)C2)c(F)cn1` [Compound E-232, 2-{3-[1-(2-amino-5-fluoropyridine-4-carbonyl)azetidin-3-yl]-1H-indazol-1-yl}-1-{2-oxa-6-azaspiro[3.4]octan-6-yl}ethan-1-one], the IC50 was determined as 38 nM.
Take `O=C(c1ccc2[nH]ncc2n1)N1CC(c2nn(CC(=O)N3CCC[C@H]3C(F)(F)F)c3cc(F)cc(F)c23)C1` [Compound E-141]: the IC50 came out at 5 nM.
As to `Nc1nccc(C(=O)N2CC(c3nn(CC(=O)N4CCC[C@H]4C(F)(F)F)c4ccc(F)cc34)C2)n1` [Compound E-241, 2-{3-[1-(2-aminopyrimidine-4-carbonyl)azetidin-3-yl]-5-fluoro-1H-indazol-1-yl}-1-[(2S)-2-(trifluoromethyl)pyrrolidin-1-yl]ethan-1-one], the IC50 was determined as 4.3 nM.
The figure for `Cc1noc(Cn2nc(C3CN(C(=O)c4ccnc(N)c4)C3)c3c(F)cccc32)n1` [Compound E-109, 4-(3-{4-fluoro-1-[(3-methyl-1,2,4-oxadiazol-5-yl)methyl]-1H-indazol-3-yl}azetidine-1-carbonyl)pyridin-2-amine] is 210 nM; for `O=C(c1ccc2[nH]ncc2c1)N1CC(c2nn(CC(=O)N3CCC[C@H]3C(F)(F)F)c3cc(F)cc(F)c23)C1` [Compound E-140, 2-{4,6-difluoro-3-[1-(1H-indazole-5-carbonyl)azetidin-3-yl]-1H-indazol-1-yl}-1-[(28)-2-(trifluoromethyl)pyrrolidin-1-yl]ethan-1-one] it is 0.8 nM.
In the case of `Nc1cc(C(=O)N2CC(c3nn(CC#Cc4ccccc4)c4cc(F)cc(F)c34)C2)ccn1` [Compound E-152, 4-{3-[4,6-difluoro-1-(3-phenylprop-2-yn-1-yl)-1H-indazol-3-yl]azetidine-1-carbonyl)pyridin-2-amine], the IC50 stood at 90 nM.
On to `Nc1cc(C(=O)N2CC(c3nn(CC(=O)N4CCC[C@H]4C(F)(F)F)c4ccc(F)cc34)C2)ccn1` [Compound E-202, 2-{3-[1-(2-aminopyridine-4-carbonyl)azetidin-3-yl]-5-fluoro-1H-indazol-1-yl}-1-[(28)-2-(trifluoromethyl)pyrrolidin-1-yl]ethan-1-one], for which the IC50 amounted to 1.1 nM.
In the case of `Nc1cc(C(=O)N2CC(c3nn(CC(=O)N4CCc5ccc(C6CC6)cc54)c4cc(F)cc(F)c34)C2)ccn1` [Compound E-172], the IC50 was determined as 1.3 nM.
Regarding `Nc1cc(C(=O)N2CC(c3nn(CC(=O)N4CCC[C@H]4C(F)(F)F)c4ccc(Cl)cc34)C2)ccn1` [Compound E-207, 2-{3-[1-(2-aminopyridine-4-carbonyl)azetidin-3-yl]-6-chloro-1H-indazol-1-yl}-1-[(28)-2-(trifluoromethyl)pyrrolidin-1-yl]ethan-1-one], the IC50 came to 1.6 nM.
`CC1(C)CCCN1C(=O)Cn1nc(C2CN(C(=O)c3ccnc(N)c3)C2)c2ccccc21` [Compound E-221, 2-{3-[1-(2-aminopyridine-4-carbonyl)azetidin-3-yl]-1H-indazol-1-yl}-1-(2,2-dimethylpyrrolidin-1-yl)ethan-1-one]: the IC50 turned out to be 4.4 nM.
In the case of `Nc1nccc(C(=O)N2CC(c3nn(CC(=O)N4CCC[C@H]4C(F)(F)F)c4cc(F)c(F)cc34)C2)n1` [Compound E-283, 2-{3-[1-(2-aminopyrimidine-4-carbonyl)azetidin-3-yl]-5,6-diffuoro-1H-indazol-1-yl}-1-[(2S)-2-(trifluoromethyl)pyrrolidin-1-yl}ethan-1-one] it was 4.5 nM; in that of `O=C(c1ccncc1Cl)N1CC(c2nn(CC(=O)N3CCC[C@H]3C(F)(F)F)c3cc(F)cc(F)c23)C1` [Compound E-143, 2-{3-[1-(3-chloropyridine-4-carbonyl)azetidin-3-yl]-4,6-difluoro-1H-indazol-1-yl}-1-[(28)-2-(trifluoromethyl)pyrrolidin-1-yl]ethan-1-one], 4.1 nM.
As for `Cc1ccc2c(c1)c(C1CN(C(=O)c3ccnc(N)n3)C1)nn2CC(=O)N(C)CC(F)(F)F` [Compound E-288, 2-{3-[1-(2-aminopyrimidine-4-carbonyl)azetidin-3-yl]-5-methyl-1H-indazol-1-yl}-N-methyl-N-(2,2,2-trifluoroethyl)acetamide], the IC50 stood at 14 nM.
In the case of `Nc1cc(C(=O)N2CC(c3nn(CC(=O)N4CCO[C@@H](C(F)(F)F)C4)c4ccccc34)C2)c(F)cn1` [Compound E-192, 2-{3-[1-(2-amino-5-fluoropyridine-4-carbonyl)azetidin-3-yl]-1H-indazol-1-yl}-1-[(2R)-2-(trifluoromethyl)morpholin-4-yl]ethan-1-one] it was 1.3 nM; in that of `Nc1cc(C(=O)N2CC(c3nn(CC4CCC(F)(F)CC4)c4cc(F)cc(F)c34)C2)ccn1` [Compound E-57, 4-(3-{1-[(4,4-difluorocyclohexyl)methyl]-4,6-difluoro-1H-indazol-3-yl}azetidine-1-carbonyl)pyridin-2-amine], 140 nM.
With `Nc1cc(C(=O)N2CC(c3nn(CC(=O)N4CCCC(C(F)(F)F)C4)c4ccccc34)C2)c(F)cn1` (stereo not shown) [Compound E-259, 2-{3-[1-(2-amino-5-fluoropyridine-4-carbonyl)azetidin-3-yl}-1H-indazol-1-yl}-1-[3-(trifluoromethyl)piperidin-1-yl]ethan-1-one], the IC50 stood at 2.1 nM.
For the compound `CC1(C)CN(C(=O)Cn2nc(C3CN(C(=O)c4cc(N)ncc4F)C3)c3c(F)cc(F)cc32)CCO1` [Compound E-176, 2-{3-[1-(2-amino-5-fluoropyridine-4-carbonyl)azetidin-3-yl)-4,6-difluoro-1H-indazol-1-yl}-1-(2,2-dimethylmorpholin-4-yl)ethan-1-one], the IC50 came out at 8.4 nM.
Regarding `Cc1nc(N)sc1C(=O)N1CC(c2nn(CC(=O)N3CCC[C@H]3C(F)(F)F)c3cccnc23)C1` [Compound E-122], the IC50 amounted to 140 nM.
For the compound `CC1(C)COCCN1C(=O)Cn1nc(C2CN(C(=O)c3ccnc(N)c3F)C2)c2ccccc21` [Compound E-190, 2-{3-[1-(2-amino-3-fluoropyridine-4-carbonyl)azetidin-3-yl]-1H-indazol-1-yl}-1-(3,3-dimethylmorpholin-4-yl)ethan-1-one], the IC50 was 7.5 nM.
In the case of `COC[C@@H]1CCCN1C(=O)Cn1nc(C2CN(C(=O)c3cc(N)ncc3F)C2)c2c(F)cc(F)cc21` [Compound E-179, 2-{3-[1-(2-amino-5-fluoropyridine-4-carbonyl)azetidin-3-yl]-4,6-difluoro-1H-indazol-1-yl}-1-f(2S)-2-(methoxymethyl)pyrrolidin-1-yllethan-1-one] it was 2.9 nM; in that of `Nc1cc(C(=O)N2CC(c3nn(CC(=O)N4CCC[C@H]4CO)c4ccccc34)C2)ccn1` [Compound E-219, 2-{3-[1-(2-aminopyridine-4-carbonyl)azetidin-3-yl]-1H-indazol-1-yl]-1-[(2S)-2-(hydroxymethyl)pyrrolidin-1-yl]ethan-1-one], 160 nM.
As to `Nc1cc(C(=O)N2CC(c3nn(CC(=O)N4CCC[C@@H]4CO)c4cc(F)cc(F)c34)C2)ccn1` [Compound E-36, 2-{3-[1-(2-aminopyridine-4-carbonyl)azetidin-3-yl]-4,6-difluoro-1H-indazol-1-yl}-1-[(2R)-2-(hydroxymethyl)pyrrolidin-1-yl]ethan-1-one], the half-inhibitory concentration (IC50) was 270 nM.
Regarding `Nc1cc(C(=O)N2CC(c3nn(CC(=O)NC4CCC(F)(F)CC4)c4ccccc34)C2)ccn1` [Compound E-235, 2-{3-[1-(2-aminopyridine-4-carbonyl)azetidin-3-yl]-1H-indazol-1-yl}-N-(4,4-difluorocyclohexyl)acetamide], the IC50 turned out to be 59 nM.
In the case of `CN(CC(F)(F)F)C(=O)Cn1nc(C2CN(C(=O)c3ccnc(N)n3)C2)c2c(Cl)c(F)ccc21` [Compound E-287, 2-{3-(1-(2-aminopyrimidine-4-carbonyl)azetidin-3-yl]-4-chloro-5-fluoro-1H-indazol-1-yl}-N-methyl-N-(2,2,2-trifluoroethyl)acetamide], the IC50 turned out to be 7.8 nM.
In the case of `CN(CCN1CCOCC1)C(=O)Cn1nc(C2CN(C(=O)c3cc(N)ncc3F)C2)c2ccccc21` [Compound E-264], the IC50 is 170 nM.
In the case of `Nc1cc(C(=O)N2CC(c3nn(CC(=O)N4CCO[C@@H](C(F)(F)F)C4)c4ccc(Cl)cc34)C2)ccn1` [Compound E-205, 2-{3-[1-(2-aminopyridine-4-carbonyl)azetidin-3-yl]-5-chloro-1H-indazol-1-yl}-1-[(2R)-2-(trifluoromethyl)morpholin-4-yl]ethan-1-one], the IC50 came to 1.6 nM.
The figure for `Nc1cc(C(=O)N2CC(c3nn(CC(=O)NCC(F)(F)F)c4cccc(Cl)c34)C2)ccn1` [Compound E-62, 2-{3-[1-(2-aminopyridine-4-carbonyl)azetidin-3-yl}-4-chloro-1H-indazol-1-yl}-N-(2,2,2-trifluoroethyl)acetamide] is 9.3 nM; for `Nc1cc(C(=O)N2CC(c3nn(Cc4noc(-c5ccccc5F)n4)c4cccc(F)c34)C2)ccn1` [Compound E-148, 4-[3-(4-fluoro-1-i[5-(2-fluorophenyl)-1,2,4-oxadiazol-3-yl]methyl}-1H-indazol-3-yl)azetidine-1-carbonyllpyridin-2-amine] it is 1.9 nM.
For the compound `O=C(C1CCOCC1)N1CC(c2nn(CC(=O)N3CCC[C@H]3C(F)(F)F)c3cc(F)cc(F)c23)C1` [Compound E-162, 2-{4,6-difluoro-3-[1-(oxane-4-carbonyl)azetidin-3-yl]-1H-indazol-1-yl}-1-[(2S)-2-(trifluoromethyl)pyrrolidin-1-yl]ethan-1-one], the IC50 came to 320 nM.
For `Nc1cc(C(=O)N2CC(c3nn(CC(=O)N4CCC[C@H]4C(F)(F)F)c4cc(F)c(F)cc34)C2)c(F)cn1` [Compound E-280], the IC50 was 0.9 nM.
As for `Nc1cc(C(=O)N2CC(c3nn(CC(=O)N4CCC[C@H]4C(F)(F)F)c4ccc(F)c(Cl)c34)C2)ccn1` [Compound E-144, 2-{3-[1-(2-aminopyridine-4-carbonyl)azetidin-3-yl]-4-chloro-5-fluoro-1H-indazol-1-yl}-1-[(2S)-2-(trifluoromethyl)pyrrolidin-1-yl]ethan-1-one], the IC50 amounted to 1.4 nM.

As a reminder, the IC50 is the point on the concentration scale where inhibition reaches its midpoint.
